The target in the assay is Serine/threonine-protein kinase PLK1 (Homo sapiens) (UniProt P53350). Description: PLK1 kinase inhibition, dose response, selectivity assay for PKD inhibitor project, biochemical (AID 1383). The following applies: counterscreen.

Active and inactive are the calls of the source. How the calls were made is not given here.

Chain of Serine/threonine-protein kinase PLK1 (Homo sapiens) (P53350 whole entry, looked up): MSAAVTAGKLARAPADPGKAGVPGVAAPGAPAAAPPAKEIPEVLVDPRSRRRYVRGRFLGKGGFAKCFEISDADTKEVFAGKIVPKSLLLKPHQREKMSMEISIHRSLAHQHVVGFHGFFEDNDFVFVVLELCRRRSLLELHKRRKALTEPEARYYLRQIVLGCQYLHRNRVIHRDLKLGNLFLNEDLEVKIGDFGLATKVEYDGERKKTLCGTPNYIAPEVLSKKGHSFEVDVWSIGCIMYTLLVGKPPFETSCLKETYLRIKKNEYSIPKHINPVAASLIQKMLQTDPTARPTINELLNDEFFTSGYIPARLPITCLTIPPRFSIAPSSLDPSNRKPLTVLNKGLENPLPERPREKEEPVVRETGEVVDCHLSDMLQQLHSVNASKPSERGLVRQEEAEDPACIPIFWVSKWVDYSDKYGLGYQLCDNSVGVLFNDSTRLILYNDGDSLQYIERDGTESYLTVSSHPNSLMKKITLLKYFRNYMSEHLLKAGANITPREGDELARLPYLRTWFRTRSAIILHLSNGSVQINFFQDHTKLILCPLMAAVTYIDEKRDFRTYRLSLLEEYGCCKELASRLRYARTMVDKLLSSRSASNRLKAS

Regarding `Clc1cncc(Cl)c1N/N=C/c1ccncc1`, the IC50 was > 50 µM (inactive).

What is called IC50 is the point on the concentration scale where inhibition reaches its midpoint.

(Values after PubChem BioAssay AID1383 (University of Pittsburgh Molecular Library Screening Center, 2008).)
